From patent publication US5298621A, “Oligopeptide derivatives of ipoxantine endowed with immunomodulating activity and pharmaceutical compositions containing same” (Sigma-Tau Industrie Farmaceutiche Riunite S.p.A., priority 1990, dated 1994)

Tested on: DTH reaction vs. SRBC
Assay: Delayed type hypersensitivity test (DTH) vs. SRBC in mice
Format: in vivo
Conditions: 25 mg/kg/day i.p. from day -3 to day +3 respect to the immunization
Method: Test 6 Assessment of the effect of ST 785 and ST 789 on the delayed type hypersensitivity test (DTH).
Male B6 D2 F1 mice (Charles River, Italy) aged 6, 12 and 16 weeks (8 animals per group) were used.
The compounds were administered i.p., 25 mg/kg/day from day -3 to day +3 (immunization at day 0). Immunization was carried out by s.c. injection in the upper dorsal zone of the animals of 0.2 mL of SRBC (5×10^7 cells/mL).
Four days following the sensitizing injection, the animals were administered the challenge injection to bring about the delayed hypersensibility reaction. 50 μL of SRBC solution (2×10^9 cells/mL) were injected in the left hind foot-pad of the mice. The contralateral foot-pad received an equal volume of PBS. 24 hours after the challenge injection, the animals were sacrificed by cervical dislocation. The legs were amputated and the differences in weight between the left leg (treated with the challenge injection) and the contralateral leg were evaluated.
The mean of weight differences in the legs of the animals of the same experimental group was determined; the differences in the mean values calculated for each experimental group were processed using Student's "t" test (Biostatistics in Pharmacology, loc cit.).
The experimental procedure which was used is described by Miller, T. E. et al, (1973), Immunopotentiation with BCG. Modulation of the response to sheep red blood cells. J. Cancer Inst., 51:1669.

N=C(N)NCCC[C@H](NC(=O)OCCCCCn1cnc2c(=O)[nH]cnc21)C(=O)O [ST 789, N-5-(ipoxantin-9-yl) pentyloxycarbonylarginine, reference compound]
Mean difference in weight (mg ± S.E.) between treated and untreated foot-pads: 34.9 ± 0.76 mg
